Measured values as given in ChEMBL document CHEMBL1201862, “PubChem BioAssay data set” (2004).
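The compound was tested at five concentrations on cells cultured in 96-well plates, with a 48-hour exposure period. GI50: concentration for 50% inhibition of growth.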 Activity calls are given as the source filed them. Rule as the data show it: active = GI50 up to about 1.1 µM and inactive = higher.

Tests used:
Assay in all cases: DTP human tumour cell line panel, 48 h
[1] = test system: CAKI-1
[2] = test system: SF-539
[3] = test system: SK-MEL-2
[4] = test system: SW-620
[5] = test system: SNB-19
[6] = test system: TK-10
[7] = test system: OVCAR-3
[8] = test system: HT-29
[9] = test system: NCI-H522
[10] = test system: UACC-257
[11] = test system: SF-268
[12] = test system: UO-31
[13] = test system: M14
[14] = test system: A549
[15] = test system: CCRF-CEM
[16] = test system: Malme-3M
[17] = test system: DU-145
[18] = test system: MCF7
[19] = test system: PC-3

Measured: GI50

N/C(=N\O)N/N=C\c1c2ccccc2c(Cl)c2ccccc12
inactive: [1] 5.52 µM | [2] 9.62 µM | [3] 10.5 µM | [4] 5.22 µM | [5] 11.9 µM | [6] 11.8 µM | [7] 3.47 µM | [8] 3.78 µM | [9] 3.8 µM | [10] 1.42 µM | [11] 7.5 µM | [12] 10.7 µM | [13] 12.1 µM | [14] 2.99 µM | [15] 5.77 µM | [16] 4.6 µM

COC1OC(Cc2nnc(C)o2)C(OCc2ccccc2)C(OCc2ccccc2)C1OCc1ccccc1 (configuration not stated)
inactive: [1] 35.6 µM | [2] 38.3 µM | [3] 14.5 µM | [4] 40.1 µM | [5] 57.8 µM | [17] 40.8 µM | [7] 18.3 µM | [18] 20.3 µM | [8] 26.4 µM | [9] 19.4 µM | [10] 17.2 µM | [11] 21.5 µM | [12] 33.1 µM | [13] 31 µM | [14] 27.2 µM | [15] 21.7 µM | [16] 15.5 µM

CC(O)c1ccc(C(O)/C(=N\NC(=O)c2ccncc2)c2nc3ccc([N+](=O)[O-])cc3nc2O)cc1 (configuration not stated)
inactive: [1] 52.8 µM | [2] 37 µM | [4] > 100 µM | [5] > 100 µM | [7] > 100 µM | [8] 96.2 µM | [9] 19.8 µM | [10] > 100 µM | [11] > 100 µM | [12] > 100 µM | [13] > 100 µM | [14] > 100 µM | [15] > 100 µM | [16] > 100 µM

CC1(C2COC(=O)C2)SCCCS1 (configuration not stated)
inactive: [1] > 100 µM | [2] > 100 µM | [3] > 100 µM | [4] > 100 µM | [5] > 100 µM | [6] > 100 µM | [7] > 100 µM | [8] > 100 µM | [9] 2.79 µM | [10] > 100 µM | [11] > 100 µM | [12] 14.2 µM | [13] > 100 µM | [14] > 100 µM | [15] > 100 µM | [16] > 100 µM

O=C1c2ccccc2C2(O)c3cc4ccccc4cc3OC12O (configuration not stated)
inactive: [1] 62.7 µM | [2] > 100 µM | [3] 47.3 µM | [4] > 100 µM | [5] 31.2 µM | [6] > 100 µM | [7] 53.6 µM | [8] > 100 µM | [9] 40.9 µM | [10] 30 µM | [11] 87.7 µM | [13] 56.9 µM | [14] 44.4 µM | [15] 47.2 µM | [16] 47.1 µM

N#CC1=C(N)Nc2nc3ccccc3n2C1c1ccccc1 (configuration not stated)
inactive: [1] 46.8 µM | [2] > 100 µM | [19] 46.1 µM | [3] 77.8 µM | [4] 55.6 µM | [5] > 100 µM | [17] 35.3 µM | [7] 30.5 µM | [18] 97.7 µM | [8] 33.7 µM | [10] > 100 µM | [11] 46.7 µM | [12] 64.3 µM | [13] > 100 µM | [14] 42 µM | [15] 6.44 µM

COc1ccc(OC)c(NC(=O)C(=O)CC(=O)c2sc(-n3nc(-c4ccccc4)cc3-c3ccccc3)nc2C)c1
inactive: [1] > 100 µM | [2] > 100 µM | [3] > 100 µM | [4] > 100 µM | [5] > 100 µM | [6] > 100 µM | [7] > 100 µM | [8] > 100 µM | [9] > 100 µM | [10] > 100 µM | [12] > 100 µM | [13] > 100 µM | [14] > 100 µM | [15] > 100 µM | [16] > 100 µM

COc1cc(O)c2c(c1)C(=O)c1cc3c(c(O)c1C2=O)C(OC1OC(C)C(OC)C(O)C1OC)C(OC)C(C)(O)C3=O (configuration not stated)
inactive: [1] 3.04 µM | [2] 3.92 µM | [19] 3.36 µM | [3] 8.11 µM | [4] 3.6 µM | [5] 6.53 µM | [6] 3.67 µM | [7] 2.84 µM | [18] 5.58 µM | [8] 3.37 µM | [9] 1.68 µM | [10] 4.28 µM | [11] 5.55 µM | [13] 3.02 µM | [14] 3.55 µM | [15] 4.1 µM | [16] 2.39 µM

N#C/C(=C\c1ccccc1F)C(=O)c1ccccc1
inactive: [1] > 100 µM | [2] > 100 µM | [3] > 100 µM | [4] > 100 µM | [5] > 100 µM | [6] > 100 µM | [7] > 100 µM | [8] > 100 µM | [9] > 100 µM | [10] > 100 µM | [11] > 100 µM | [12] > 100 µM | [13] > 100 µM | [14] > 100 µM | [15] > 100 µM | [16] > 100 µM

C#CCOCn1cnc2c(Cl)ncnc21
inactive: [1] > 100 µM | [2] > 100 µM | [3] > 100 µM | [4] > 100 µM | [5] > 100 µM | [6] > 100 µM | [7] > 100 µM | [8] > 100 µM | [9] 86.1 µM | [10] > 100 µM | [11] > 100 µM | [12] > 100 µM | [13] > 100 µM | [14] > 100 µM | [15] > 100 µM | [16] > 100 µM

CCCCCCC(=O)C/C(CCC(=O)N(Cc1ccccc1)Cc1ccccc1)=N\NC(N)=O
inactive: [1] > 100 µM | [2] > 100 µM | [3] > 100 µM | [4] > 100 µM | [5] > 100 µM | [6] > 100 µM | [7] > 100 µM | [8] > 100 µM | [9] > 100 µM | [10] > 100 µM | [11] > 100 µM | [12] > 100 µM | [13] > 100 µM | [14] > 100 µM | [15] > 100 µM | [16] > 100 µM

CC(C)(C)c1cc2c(O)c(c1)COCc1cc(C(C)(C)C)cc(c1O)COCc1cc(C(C)(C)C)cc(c1O)COC2
inactive: [19] > 100 µM | [3] > 100 µM | [4] > 100 µM | [5] 6.04 µM | [17] 32.5 µM | [6] > 100 µM | [7] > 100 µM | [18] > 100 µM | [10] > 100 µM | [12] 35.5 µM | [13] 88.5 µM | [14] > 100 µM | [15] 59 µM

CN1CC[C@]2(C)c3ccc(O)cc3CC3CCCC1C32C (some centres not stated)
inactive: [1] > 100 µM | [2] > 100 µM | [3] > 100 µM | [5] > 100 µM | [6] > 100 µM | [7] > 100 µM | [8] > 100 µM | [9] > 100 µM | [10] > 100 µM | [11] > 100 µM | [12] 92.3 µM | [13] > 100 µM | [14] > 100 µM | [15] > 100 µM | [16] > 100 µM
